Literature values in patent publication US20120295796A1, “System and Method of Predicting Chemical Interaction and Functionality of Molecules” (VASSA INFORMATICS, priority 2010, published 2012).

How the values were obtained:
[1] = molecular target: T1, HMG-CoA reductase (Homo sapiens, UniProt P04035); settings: hit of Lipitor search, not structurally similar to Lipitor
T1 sequence (P04035 426-888 limits assumed): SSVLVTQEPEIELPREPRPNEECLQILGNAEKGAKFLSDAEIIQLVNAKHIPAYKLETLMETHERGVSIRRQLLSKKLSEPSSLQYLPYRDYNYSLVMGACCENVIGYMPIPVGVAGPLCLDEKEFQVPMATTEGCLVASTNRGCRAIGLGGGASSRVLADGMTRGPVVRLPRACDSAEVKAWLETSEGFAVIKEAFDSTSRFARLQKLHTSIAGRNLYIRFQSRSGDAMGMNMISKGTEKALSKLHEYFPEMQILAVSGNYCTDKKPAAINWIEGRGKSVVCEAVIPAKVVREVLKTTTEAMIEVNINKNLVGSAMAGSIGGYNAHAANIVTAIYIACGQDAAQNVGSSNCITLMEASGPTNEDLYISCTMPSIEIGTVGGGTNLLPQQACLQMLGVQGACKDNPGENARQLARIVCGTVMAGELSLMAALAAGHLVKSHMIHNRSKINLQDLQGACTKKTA

[2] = molecular target: EGFR (Homo sapiens, UniProt P00533); settings: search utilizing the entire binding site
Chain of EGFR (P00533 25-1210): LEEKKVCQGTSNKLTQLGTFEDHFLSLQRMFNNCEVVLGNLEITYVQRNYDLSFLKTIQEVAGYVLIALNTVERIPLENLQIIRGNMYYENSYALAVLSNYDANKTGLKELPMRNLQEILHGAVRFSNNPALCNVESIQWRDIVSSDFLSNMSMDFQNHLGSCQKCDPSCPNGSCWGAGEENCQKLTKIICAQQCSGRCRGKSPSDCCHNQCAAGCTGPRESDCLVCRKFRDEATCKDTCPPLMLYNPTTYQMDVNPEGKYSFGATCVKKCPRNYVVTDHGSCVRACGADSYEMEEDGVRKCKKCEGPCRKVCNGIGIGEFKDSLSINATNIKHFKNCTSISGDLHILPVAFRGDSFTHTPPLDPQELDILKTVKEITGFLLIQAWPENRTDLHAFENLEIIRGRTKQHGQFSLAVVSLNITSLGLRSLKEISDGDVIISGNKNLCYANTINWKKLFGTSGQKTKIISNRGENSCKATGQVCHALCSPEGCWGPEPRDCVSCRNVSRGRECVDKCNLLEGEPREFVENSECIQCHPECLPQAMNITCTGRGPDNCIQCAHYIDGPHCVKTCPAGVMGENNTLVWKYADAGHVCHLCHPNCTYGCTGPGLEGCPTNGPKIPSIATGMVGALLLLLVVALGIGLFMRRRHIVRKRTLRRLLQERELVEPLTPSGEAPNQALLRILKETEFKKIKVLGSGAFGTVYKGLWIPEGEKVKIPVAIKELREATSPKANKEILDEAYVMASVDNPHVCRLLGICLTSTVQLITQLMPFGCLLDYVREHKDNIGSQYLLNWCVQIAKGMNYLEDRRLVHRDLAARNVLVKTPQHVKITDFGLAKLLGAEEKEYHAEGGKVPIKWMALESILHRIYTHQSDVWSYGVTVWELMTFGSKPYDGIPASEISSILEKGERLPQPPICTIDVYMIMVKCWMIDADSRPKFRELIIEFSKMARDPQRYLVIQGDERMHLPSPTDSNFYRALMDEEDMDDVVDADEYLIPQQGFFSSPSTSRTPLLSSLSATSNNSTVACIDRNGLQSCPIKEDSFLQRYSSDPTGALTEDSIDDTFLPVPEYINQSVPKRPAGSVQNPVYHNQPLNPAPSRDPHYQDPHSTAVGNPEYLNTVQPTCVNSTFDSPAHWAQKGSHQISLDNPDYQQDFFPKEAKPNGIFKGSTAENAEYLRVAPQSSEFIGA

Structure (SMILES)	known binding to HMG-CoA reductase (search result category Known Binders) [1]	binder status at the Tarceva binding site (ADP binding site) [2]
CC(C)(COP(=O)(O)OP(=O)(O)OC[C@H]1O[C@@H](n2cnc3c(N)ncnc32)[C@H](O)[C@@H]1OP(=O)(O)O)[C@@H](O)C(=O)NCCC(=O)NCCS [Coenzyme A]	binds HinG-CoA reductase	–
Nc1ncnc2c1ncn2[C@@H]1O[C@H](COP(=O)(O)O)[C@@H](O)[C@H]1O [AMP]	–	already known or suspected as binders
Nc1ncnc2c1ncn2[C@@H]1O[C@H](COP(=O)(O)OP(=O)(O)O)[C@@H](O)[C@H]1O [ADP]	–	already known or suspected as binders
Nc1ncnc2c1ncn2[C@@H]1O[C@H](COP(=O)(O)OP(=O)(O)OP(=O)(O)O)[C@@H](O)[C@H]1O [ATP]	–	already known or suspected as binders
